Where two headings read alike, the source gives them in different places.
Biological target: T1, human CCR7 (Homo sapiens, UniProt P32248)
T1 construct: expressed in transfected cells
T1 sequence (P32248 25-378): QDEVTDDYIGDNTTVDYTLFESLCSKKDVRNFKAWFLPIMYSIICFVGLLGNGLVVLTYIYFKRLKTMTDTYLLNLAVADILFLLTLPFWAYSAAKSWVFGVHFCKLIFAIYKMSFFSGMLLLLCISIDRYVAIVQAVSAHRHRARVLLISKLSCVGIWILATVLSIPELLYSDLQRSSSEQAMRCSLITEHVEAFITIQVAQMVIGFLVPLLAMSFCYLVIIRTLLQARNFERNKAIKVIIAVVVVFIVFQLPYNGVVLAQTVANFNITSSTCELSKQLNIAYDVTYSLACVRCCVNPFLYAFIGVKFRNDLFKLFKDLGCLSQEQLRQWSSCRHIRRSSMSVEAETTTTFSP
Assay: CCL19-induced calcium mobilization assay, U87.CD4 cells expressing CCR7
Type: cell-based
Settings: for IC50: read-out: IC50 [μM] block CCL19 induced calcium signaling
Method: U87.CD4 cells that stably express either human CCR7, CXCR2, CCR5 or CXCR4 were seeded (20,000 cells/well) in gelatin-coated black-walled polystyrene 96-well plates with clear bottom and incubated overnight at 37°C and 5% CO2. […] Culture medium was removed, and cells were incubated for 45 min at room temperature in the dark. […] Exactly the same protocol was used to record calcium responses in Chinese hamster ovary (CHO)-K1 cells, upon stimulation with adenosine triphosphate (ATP, purchased from Sigma).

[1] = CCL19-induced calcium signaling
[2] = classification of tested compounds as decoy or active
[3] = CCL19 induced calcium signaling
[4] = classification as decoy or active on CCR7

In the case of `COc1ccc([N+](=O)[O-])c(C(=O)N[C@@H](c2ncccc2C)C(C)C)c1` [C135, COc1ccc([N+](=O)[O-])c(C(=O)N[C@@H](c2ncccc2C)C(C)C)c1], the IC50 [1] is reported as greater than 50 µM and the “Decoy – 0 Active – 1” value [2] is reported as 0.
`O=C(O[C@@H]1CS(=O)(=O)C[C@@H]1Nc1ccccc1)c1ccccc1` [C123, O=C(O[C@@H]1CS(=O)(=O)C[C@@H]1Nc1ccccc1)c1ccccc1] was tested, and the IC50 [1] was greater than 50 µM and the “Decoy – 0 Active – 1” value [2] was 0.
`COC[C@@H](NC1=NS(=O)(=O)c2ccccc21)c1ccc(C)o1` [C134, COC[C@@H](NC1=NS(=O)(=O)c2ccccc21)c1ccc(C)o1] was tested, and the IC50 [1] was greater than 50 µM and the “Decoy – 0 Active – 1” value [2] was 0.
`CC(=O)Nc1cccc(NCC(=O)N(Cc2ccc(C)o2)C2CC2)c1` [C054, CC(=O)Nc1cccc(NCC(=O)N(Cc2ccc(C)o2)C2CC2)c1] was tested, and the IC50 [1] was greater than 10 µM and the “Decoy – 0 Active – 1” value [2] was 0.
For `OCc1ccccc1NC(=S)NCc1ccccc1` [C038, OCc1ccccc1NC(=S)NCc1ccccc1], the IC50 [1] was greater than 30 µM and the “Decoy – 0 Active – 1” value [2] was 0.
In the case of `C[C@@H](CNC(=O)Nc1ccnc(C(=O)N(C)C)c1)c1cccs1` [C119, C[C@@H](CNC(=O)Nc1ccnc(C(=O)N(C)C)c1)c1cccs1], the IC50 [1] is reported as greater than 50 µM and the “Decoy – 0 Active – 1” value [2] is reported as 0.
For `C[C@@H]1CCN(Cc2ccccc2)C[C@H]1Nc1ccc([N+](=O)[O-])c(C(N)=O)c1` [C117, C[C@@H]1CC[N@H+](Cc2ccccc2)C[C@H]1Nc1ccc([N+](=O)[O-])c(C(N)=O)c1], the IC50 [1] was greater than 50 µM and the “Decoy – 0 Active – 1” value [2] was 0.
With `CCC1(C(N)=O)CCCN(C(=O)NCc2c(Cl)cccc2Cl)C1` (stereo not drawn) [C165, CCC1(C(N)=O)CCCN(C(=O)NCc2c(Cl)cccc2Cl)C1] the IC50 [3] was greater than 50 µM and the “Decoy – 0 Active – 1” value [4] was 0.
With `COc1ccc(C(Cc2ccccc2)NC(=O)N2CCC(O)C(F)(F)C2)cc1` (stereo not drawn) [C181, COc1ccc(C(Cc2ccccc2)NC(=O)N2CCC(O)C(F)(F)C2)cc1] the IC50 [3] was greater than 50 µM and the “Decoy – 0 Active – 1” value [4] was 0.
In the case of `Cc1cccc(C)c1NC(=O)c1cc(S(N)(=O)=O)c(Cl)cc1O` [C179, Cc1cccc(C)c1NC(=O)c1cc(S(N)(=O)=O)c(Cl)cc1O], the IC50 [3] is reported as greater than 50 µM and the “Decoy – 0 Active – 1” value [4] is reported as 0.
For `COc1c(Nc2cc(C(F)(F)F)cc(C(F)(F)F)c2)c(=O)c1=O` [C025, O=C1C(OC)=C(NC2=CC(C(F)(F)F)=CC(C(F)(F)F)=C2)C1=O], the IC50 [1] was greater than 30 µM and the “Decoy – 0 Active – 1” value [2] was 0.
`COc1ccc(C)cc1NC(=S)N1CCN(c2ccccc2O)CC1` [C026, COc1ccc(C)cc1NC(=S)N1CCN(CC1)c1ccccc1O] was tested, and the IC50 [1] was greater than 30 µM and the “Decoy – 0 Active – 1” value [2] was 0.
With `Cc1ccc(NCC(=O)NCc2ccco2)cc1C(=O)N(C)C` [C057, Cc1ccc(NCC(=O)NCc2ccco2)cc1C(=O)N(C)C] the IC50 [1] was greater than 10 µM and the “Decoy – 0 Active – 1” value [2] was 0.
With `CCOC(=O)[C@H](NCC(=O)Nc1cccc(C(=O)N(C)C)c1)C(C)C` [C125, CCOC(=O)[C@H]([NH2+]CC(=O)Nc1cccc(C(=O)N(C)C)c1)C(C)C] the IC50 [1] was greater than 50 µM and the “Decoy – 0 Active – 1” value [2] was 0.
`O=C1CC(C(=O)NC2CCCc3ccccc32)Cc2nc(NC(=O)C3CCC3)sc21` (stereo not drawn) [C226, O=C1CC(C(=O)NC2CCCc3ccccc32)Cc2nc(NC(=O)C3CCC3)sc21] was tested, and the IC50 [3] was greater than 50 µM and the “Decoy – 0 Active – 1” value [4] was 0.
For `O=C(c1cn2ccccc2n1)N(CCN1CCCC1)Cc1ccc(Cl)c(Cl)c1` [C280, O=C(c1cn2ccccc2n1)N(CCN1CCCC1)Cc1ccc(Cl)c(Cl)c1], the IC50 [3] was greater than 50 µM and the “Decoy – 0 Active – 1” value [4] was 0.
In the case of `Cc1cccc(CN2CCC[C@H](Nc3ccc(C)c(C)c3)C2)n1` [C083, Cc1cccc(C[N@H+]2CCC[C@H](Nc3ccc(C)c(C)c3)C2)n1], the IC50 [1] is reported as greater than 50 µM and the “Decoy – 0 Active – 1” value [2] is reported as 0.
`O=C(NC1CCC(C(=O)N2CCCCC2)C1)NC1C2Cc3cc(F)ccc3C21` (stereo not drawn) [C227, O=C(NC1CCC(C(=O)N2CCCCC2)C1)NC1C2Cc3cc(F)ccc3C21] was tested, and the IC50 [3] was greater than 50 µM and the “Decoy – 0 Active – 1” value [4] was 0.
In the case of `CC1(O)CN(C(=O)c2cc3c(Br)cccc3[nH]2)C1` [C175, CC1(O)CN(C(=O)c2cc3c(Br)cccc3[nH]2)C1], the IC50 [3] is reported as greater than 50 µM and the “Decoy – 0 Active – 1” value [4] is reported as 0.
`Cc1ccc(N[C@H]2CS(=O)(=O)C[C@H]2OC(=O)c2ccccc2)cc1` [C120, Cc1ccc(N[C@H]2CS(=O)(=O)C[C@H]2OC(=O)c2ccccc2)cc1] was tested, and the IC50 [1] was greater than 50 µM and the “Decoy – 0 Active – 1” value [2] was 0.
`Cn1ccnc1[C@H](NC1=NS(=O)(=O)c2ccccc21)c1cccc(F)c1` [C153, Cn1ccnc1[C@H](NC1=NS(=O)(=O)c2ccccc21)c1cccc(F)c1] was tested, and the IC50 [1] was greater than 50 µM and the “Decoy – 0 Active – 1” value [2] was 0.
With `CCOC(=O)c1sc2ncnc(NC[C@H]3CCCO3)c2c1C` [C103, CCOC(=O)c1sc2ncnc(NC[C@H]3CCCO3)c2c1C] the IC50 [1] was greater than 50 µM and the “Decoy – 0 Active – 1” value [2] was 0.
For `COc1ccc(S(=O)(=O)Nc2ccccc2C(=O)N2CCOCC2)cc1C` [C260, Cc1cc(ccc1OC)S(=O)(=O)Nc2ccccc2C(=O)N3CCOCC3], the IC50 [3] was greater than 50 µM and the “Decoy – 0 Active – 1” value [4] was 0.
With `FC(F)(F)c1ccccc1NC(=S)Nc1ccn(Cc2ccc(Cl)cc2)n1` [C031, FC(F)(F)c1ccccc1NC(=S)Nc1ccn(Cc2ccc(Cl)cc2)n1] the IC50 [1] was greater than 30 µM and the “Decoy – 0 Active – 1” value [2] was 0.
For `O=C([C@@H]1C[C@@H]1c1ccco1)N1CCC[C@H]1Cc1ccc(F)cc1` [C154, O=C([C@@H]1C[C@@H]1c1ccco1)N1CCC[C@H]1Cc1ccc(F)cc1], the IC50 [1] was greater than 50 µM and the “Decoy – 0 Active – 1” value [2] was 0.
In the case of `COCCN(Cc1cccs1)C(=O)N[C@@H](C)c1ccc(C)o1` [C141, COCCN(Cc1cccs1)C(=O)N[C@@H](C)c1ccc(C)o1], the IC50 [1] is reported as greater than 50 µM and the “Decoy – 0 Active – 1” value [2] is reported as 0.
`Cc1ccc(C(C)NC(=O)C(=O)Nc2cc(C(=O)N(C)C)ccc2C)o1` (stereo not drawn) [C058, Cc1ccc(C(C)NC(=O)C(=O)Nc2cc(C(=O)N(C)C)ccc2C)o1] was tested, and the IC50 [1] was greater than 10 µM and the “Decoy – 0 Active – 1” value [2] was 0.
With `NC(=O)C1CC(O)CN1C(=S)Nc1ccc(S(=O)(=O)N2CCOCC2)cc1` (stereo not drawn) [C028, NC(=O)C1CC(O)CN1C(=S)Nc1ccc(cc1)S(=O)(=O)N1CCOCC1] the IC50 [1] was greater than 30 µM and the “Decoy – 0 Active – 1” value [2] was 0.
With `CC[C@@H](NC(=O)CCn1ccccc1=O)c1cc(F)ccc1F` [C132, CC[C@@H](NC(=O)CCn1ccccc1=O)c1cc(F)ccc1F] the IC50 [1] was greater than 50 µM and the “Decoy – 0 Active – 1” value [2] was 0.
In the case of `CS(=O)(=O)c1ccc(-c2cccc(NC(=O)[C@H]3CCCO3)c2)nn1` [C101, CS(=O)(=O)c1ccc(-c2cccc(NC(=O)[C@H]3CCCO3)c2)nn1], the IC50 [1] is reported as greater than 50 µM and the “Decoy – 0 Active – 1” value [2] is reported as 0.
For `COc1ccc2c(c1)CCCN2C(=O)C1CC(=O)N(c2ccc3c(c2)OCCO3)C1` (stereo not drawn) [C218, COc1ccc2c(c1)CCCN2C(=O)C1CC(=O)N(c2ccc3c(c2)OCCO3)C1], the IC50 [3] was greater than 50 µM and the “Decoy – 0 Active – 1” value [4] was 0.
For `O=C(CNc1c(N2CCN(c3ccc(Cl)cc3)CC2)c(=O)c1=O)NCc1ccco1` [C008, O=C(CNc1c(N2CCN(c3ccc(Cl)cc3)CC2)c(=O)c1=O)NCc1ccco1], the IC50 [1] was greater than 50 µM and the “Decoy – 0 Active – 1” value [2] was 0.
With `Cc1cccc(-c2cccc(C(=O)N3CC(O)CC3C(=O)O)c2)c1` (stereo not drawn) [C187, Cc1cccc(-c2cccc(C(=O)N3CC(O)CC3C(=O)[O-])c2)c1] the IC50 [3] was greater than 50 µM and the “Decoy – 0 Active – 1” value [4] was 0.
`O=c1[nH]c(NCC(O)c2ccc3ccccc3c2)nc2ccccc12` (stereo not drawn) [C219, O=c1[nH]c(NCC(O)c2ccc3ccccc3c2)nc2ccccc12] was tested, and the IC50 [3] was greater than 50 µM and the “Decoy – 0 Active – 1” value [4] was 0.
With `COc1ccc(S(=O)(=O)N(CC(=O)N2CCN(C)CC2)Cc2ccccc2)cc1C` [C242, Cc1cc(ccc1OC)S(=O)(=O)N(Cc2ccccc2)CC(=O)N3CC[NH+](CC3)C] the IC50 [3] was greater than 50 µM and the “Decoy – 0 Active – 1” value [4] was 0.
With `COc1cccc(-c2cc(C(=O)NCc3ccco3)no2)c1` [C094, COc1cccc(-c2cc(C(=O)NCc3ccco3)no2)c1] the IC50 [1] was greater than 50 µM and the “Decoy – 0 Active – 1” value [2] was 0.
